Source: patent US8415272B2, “Quinoline derivatives and their use as fungicides” (Syngenta Crop Protection LLC, priority 2008, dated 2013)

Columns and labels:
Phytophthora infestans = assay: whole plant or invertebrate; assay type: in vivo; settings: in Solanum lycopersicum, foliar, 96 h, read-out: control of fungal infection, Phytophthora infestans
Plasmopara viticola = assay: Leaf disk assay, Plasmopara viticola (downy mildew of grapevine), preventive; assay type: in vivo; settings: foliar, 168 h, grapevine leaf disks, assessed seven days after inoculation, read-out: control of fungal infection, Plasmopara viticola
[1] = test system: Erysiphe graminis f.sp. tritici; assay: Leaf disk assay, Erysiphe graminis f.sp. tritici (wheat powdery mildew), preventive; assay type: in vivo; settings: Blumeria graminis, foliar, 96 h, wheat leaf segments, assessed four days after inoculation, read-out: control of fungal infection, Erysiphe graminis f.sp. tritici
Summary of the method: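 Preventive protocol: compound at 200 ppm in water (from DMSO) sprayed onto wheat leaf segments on agar, dried 12–24 h, then spore-inoculated. Fungicidal activity was assessed four days post-inoculation.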

Pyricularia oryzae = assay: whole plant or invertebrate; assay type: in vivo; settings: foliar, 96 h, read-out: control of fungal infection, Pyricularia oryzae
[2] = test system: Puccinia recondita f.sp. tritici; assay: Leaf disk assay, Puccinia recondita f.sp. tritici (wheat brown rust), preventive; assay type: in vivo; settings: foliar, 216 h, wheat leaf segments, assessed nine days after inoculation, read-out: control of fungal infection, Puccinia recondita f.sp. tritici
Septoria nodorum = assay: Leaf disk assay, Septoria nodorum (wheat glume blotch), preventive; assay type: in vivo; settings: Parastagonospora nodorum, foliar, 96 h, wheat leaf segments, assessed four days after inoculation, read-out: control of fungal infection, Septoria nodorum
Septoria tritici = assay: Growth inhibition in nutrient broth, Septoria tritici (leaf blotch), photometric; assay type: cell-based; settings: Zymoseptoria tritici, PDB broth, 24 C, 72 hrs, read-out: control of fungal infection, Septoria tritici
Pythium ultimum = assay: Growth inhibition in potato dextrose broth, Pythium ultimum (damping off), photometric; assay type: cell-based; settings: Globisporangium ultimum, 24° C., 48 hours, read-out: control of fungal infection, Pythium ultimum
Summary of the method: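 Growth inhibition was read photometrically at 48 hours after incubation at 24° C. Test compound was diluted from DMSO to 20 ppm in water and combined with potato dextrose broth seeded with Pythium ultimum mycelial fragments.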

Pyrenophora teres = assay: Leaf disk assay, Pyrenophora teres (barley net blotch), preventive; assay type: in vivo; settings: foliar, 96 h, barley leaf segments, assessed four days after inoculation, read-out: control of fungal infection, Pyrenophora teres
Summary of the method: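 Barley leaf segments on agar were sprayed with compound at 200 ppm (from DMSO stock diluted in water) and dried for 12-24 h before inoculation with a Pyrenophora teres spore suspension. Preventive fungicidal activity was scored 4 days after inoculation.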

Fusarium culmorum = assay: Growth inhibition in nutrient broth, Fusarium culmorum (root rot), photometric; assay type: cell-based; settings: 48 h, read-out: control of fungal infection, Fusarium culmorum
Summary of the method: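 Fusarium culmorum conidia in potato dextrose broth were added to compounds in DMSO. Plates were incubated at 24 C for 48 hrs, with growth inhibition read photometrically. […]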

Botrytis cinerea = assay: Leaf disk assay, Botrytis cinerea (grey mould) on bean, preventive; assay type: in vivo; settings: foliar, 96 h, bean leaf disks, assessed four days after inoculation, read-out: control of fungal infection, Botrytis cinerea

Row | Structure (SMILES) | melting point | pest or weed control at 200 ppm (Phytophthora infestans) | pest or weed control at 200 ppm (Plasmopara viticola) | pest or weed control at 200 ppm [1] | pest or weed control at 200 ppm (Pyricularia oryzae) | pest or weed control at 200 ppm [2] | pest or weed control at 200 ppm (Septoria nodorum) | inhibition of growth at 60 ppm (Septoria tritici) | inhibition of growth at 20 ppm (Pythium ultimum) | pest or weed control at 200 ppm (Pyrenophora teres) | inhibition of growth at 60 ppm (Fusarium culmorum) | pest or weed control at 200 ppm (Botrytis cinerea)
1 | C#Cc1cnc2ccc(OC(SC)C(=O)N(O)C(C)(C)C)cc2c1 (stereo not drawn) [Compound 147, N-tert-Butyl-2-(3-ethynyl-quinolin-6-yloxy)-N-hydroxy-2-methylsulfanyl-acetamide] | 164 °C |  |  |  |  |  |  |  |  |  |  | 
2 | C#Cc1cnc2ccc(OC(SC)C(=O)NC(C)(C#C)CO)cc2c1 (stereo not drawn) [Compound 160, 2-(3-ethynyl-quinolin-6-yloxy)-N-(1-hydroxymethyl-1-methylprop-2-ynyl)-2-methylsulfanyl-acetamide] | 149 to 150 °C |  |  |  |  |  |  |  |  |  |  | 
3 | C#Cc1cnc2ccc(OC(SC)C(=O)NC(C)(C)CO)cc2c1 (stereo not drawn) [Compound 168, 2-(3-ethynyl-quinolin-6-yloxy)-N-(2-hydroxy-1,1-dimethyl-ethyl)-2-methylsulfanyl-acetamide] | 149 to 151 °C |  |  |  |  |  |  |  |  |  |  | 
4 | C#Cc1cnc2ccc(OC(SC)C(=O)NC(C)(C#C)CO)cc2c1 (stereo not drawn) [Compound 173, 2-(3-Ethynyl-quinolin-6-yloxy)-N-(1-hydroxymethyl-1-methyl-prop-2-ynyl)-2-methylsulfanyl-acetamide] | 150 to 155 °C |  |  |  |  |  |  |  |  |  |  | 
5 | C#Cc1cnc2cc(F)c(OC(SC)C(=O)NC(C)(C#N)CO)cc2c1 (stereo not drawn) [Compound 174, N-(1-Cyano-2-hydroxy-1-methyl-ethyl)-2-(3-ethynyl-7-fluoro-quinolin-6-yloxy)-2-methylsulfanyl-acetamide] | 80 to 83 °C |  |  |  |  |  |  |  |  |  |  | 
6 | C#Cc1cnc2ccc(OC(SC)C(=O)NC3COC3)cc2c1 (stereo not drawn) [Compound 178, 2-(3-Ethynyl-quinolin-6-yloxy)-2-methylsulfanyl-N-oxetan-3-yl-acetamide] | 98 to 100 °C |  |  |  |  |  |  |  |  |  |  | 
7 | C#Cc1cnc2ccc(OC(SC)C(=O)NC3(C)COC3)cc2c1 (stereo not drawn) [Compound 186, 2-(3-Ethynyl-quinolin-6-yloxy)-N-(3-methyl-oxetan-3-yl)-2-methylsulfanyl-acetamide] | 61 to 65 °C |  |  |  |  |  |  |  |  |  |  | 
8 | C#Cc1cnc2c(Cl)cc(OC(SC)C(=O)NC3(C)CCC3)cc2c1 (stereo not drawn) [Compound 203, 2-(8-Chloro-3-ethynyl-quinolin-6-yloxy)-N-(1-methyl-cyclobutyl)-2-methylsulfanyl-acetamide] | 121 to 123 °C |  |  |  |  |  |  |  |  |  |  | 
9 | C#Cc1cnc2c(F)cc(OC(SC)C(=O)NC(C)C)cc2c1 (stereo not drawn) [Compound 222, 2-(3-Ethynyl-8-fluoro-quinolin-6-yloxy)-N-isopropyl-2-methylsulfanyl-acetamide] | 135 to 136 °C |  |  |  |  |  |  |  |  |  |  | 
10 | C#Cc1cnc2ccc(OC(SC)C(=O)NC3CSC3)cc2c1 (stereo not drawn) [Compound 223, 2-(3-Ethynyl-quinolin-6-yloxy)-2-methylsulfanyl-N-thietan-3-yl-acetamide] | 150 to 152 °C |  |  |  |  |  |  |  |  |  |  | 
11 | C#Cc1cnc2ccc(OC(SC)C(=O)NC3(C)CSC3)cc2c1 (stereo not drawn) [Compound 224, 2-(3-Ethynyl-quinolin-6-yloxy)-2-methylsulfanyl-N-(3-methyl-thietan-3-yl)-acetamide] | 132 to 134 °C |  |  |  |  |  |  |  |  |  |  | 
12 | C#Cc1cnc2cc(F)c(OC(SC)C(=O)NC(C)(C#N)COC)cc2c1 (stereo not drawn) [Example 6] |  | ≥ 60% | ≥ 60% | ≥ 60% | ≥ 60% | ≥ 60% | ≥ 60% | ≥ 60% | ≥ 60% |  |  | 
13 | C#Cc1cnc2c(C)cc(OC(SC)C(=O)NC(C)(C)C#C)cc2c1 (stereo not drawn) [Example 7] |  | ≥ 60% | ≥ 60% |  | ≥ 60% |  | ≥ 60% | ≥ 60% | ≥ 60% | ≥ 60% | ≥ 60% | 
14 | C#Cc1cnc2c(C)cc(OC(SC)C(=O)NC(C)(C)C#CC)cc2c1 (stereo not drawn) [Example 8] |  | ≥ 60% | ≥ 60% |  | ≥ 60% |  | ≥ 60% | ≥ 60% | ≥ 60% | ≥ 60% | ≥ 60% | ≥ 60%
15 | C#Cc1cnc2c(C)cc(OC(SC)C(=O)NC(C)(C)C#CCOC)cc2c1 (stereo not drawn) [Example 9] |  | ≥ 60% | ≥ 60% | ≥ 60% | ≥ 60% | ≥ 60% | ≥ 60% | ≥ 60% | ≥ 60% |  | ≥ 60% | 
16 | C#CCOCC#CC(C)(C)NC(=O)C(Oc1cc(C)c2ncc(C#C)cc2c1)SC (stereo not drawn) [Example 10] |  | ≥ 60% | ≥ 60% | ≥ 60% | ≥ 60% |  | ≥ 60% | ≥ 60% | ≥ 60% |  | ≥ 60% | 
17 | C#Cc1cnc2c(C)cc(OC(SC)C(=O)NC(C)(C#N)COC)cc2c1 (stereo not drawn) [Example 12] |  | ≥ 60% | ≥ 60% | ≥ 60% | ≥ 60% | ≥ 60% | ≥ 60% | ≥ 60% | ≥ 60% |  |  | 
18 | C#CCOCC(C)(COCC#C)NC(=O)C(Oc1ccc2ncc(C#C)cc2c1)SC (stereo not drawn) [Example 12c, 2-(3-ethynyl-quinolin-6-yloxy)-N-(1-methyl-2-prop-2-ynyloxy-1-prop-2-ynyloxymethyl-ethyl)-2-methylsulfanyl-acetamide] | 95 to 100 °C |  |  |  |  |  |  |  |  |  |  | 
19 | C#Cc1cnc2ccc(OC(SC)C(=O)NC(C)(C#N)CO)cc2c1 (stereo not drawn) [Example 12d, N-(1-cyano-2-hydroxy-1-methyl-ethyl)-2-(3-ethynyl-quinolin-6-yloxy)-2-methylsulfanyl-acetamide] | 78 to 80 °C |  |  |  |  |  |  |  |  |  |  | 
20 | C#Cc1cnc2c(C)cc(OC(SC)C(=O)NC(C)(C)COC)cc2c1 (stereo not drawn) [Example 13] |  | ≥ 60% | ≥ 60% | ≥ 60% | ≥ 60% | ≥ 60% | ≥ 60% | ≥ 60% | ≥ 60% | ≥ 60% | ≥ 60% | ≥ 60%
21 | C#Cc1cnc2c(C)cc(OC(SC)C(=O)NC(C)(C)CO)cc2c1 (stereo not drawn) [Example 15] |  | ≥ 60% | ≥ 60% |  | ≥ 60% |  | ≥ 60% | ≥ 60% | ≥ 60% |  |  | 
22 | C#CCC(C)(C)NC(=O)C(Oc1cc(C)c2ncc(C#C)cc2c1)SC (stereo not drawn) [Example 16] |  | ≥ 60% | ≥ 60% | ≥ 60% | ≥ 60% | ≥ 60% | ≥ 60% | ≥ 60% | ≥ 60% | ≥ 60% | ≥ 60% | 
23 | C#CCC(C)(C)NC(=O)C(Oc1ccc2ncc(C#C)cc2c1)SC (stereo not drawn) [Example 31] |  | ≥ 60% | ≥ 60% | ≥ 60% |  | ≥ 60% | ≥ 60% | ≥ 60% | ≥ 60% | ≥ 60% | ≥ 60% | ≥ 60%
24 | C#Cc1cnc2cc(F)c(OC(SC)C(=O)NC(C)(C)C#CCOC)cc2c1 (stereo not drawn) [Example 66] |  | ≥ 60% | ≥ 60% | ≥ 60% |  | ≥ 60% | ≥ 60% | ≥ 60% | ≥ 60% | ≥ 60% | ≥ 60% | ≥ 60%
25 | C#CCC(C)(C)NC(=O)C(Oc1cc(Cl)c2ncc(C#C)cc2c1)SC (stereo not drawn) [Example 75] |  | ≥ 60% | ≥ 60% | ≥ 60% |  | ≥ 60% | ≥ 60% | ≥ 60% | ≥ 60% | ≥ 60% | ≥ 60% | ≥ 60%
